In article PMC12155096 (International Journal of Molecular Sciences, 2025):
Like-named read-outs stand apart in the source and are kept apart here.

What was measured:
[1] = target: T1, human CYP2C9 (Homo sapiens, UniProt P11712); experiment: biochemical
[2] = target: T2, human CYP2C19 (Homo sapiens, UniProt P33261); experiment: P450-Glo CYP2C19 inhibition qHTS
[3] = target: T3, human CYP2D6 (Homo sapiens, UniProt P10635); details: for CYP2D6 Efficacy (in parenthesis): human
[4] = target: T4, human CYP1A2 (Homo sapiens, UniProt P05177)
T4 sequence (P05177 1-516): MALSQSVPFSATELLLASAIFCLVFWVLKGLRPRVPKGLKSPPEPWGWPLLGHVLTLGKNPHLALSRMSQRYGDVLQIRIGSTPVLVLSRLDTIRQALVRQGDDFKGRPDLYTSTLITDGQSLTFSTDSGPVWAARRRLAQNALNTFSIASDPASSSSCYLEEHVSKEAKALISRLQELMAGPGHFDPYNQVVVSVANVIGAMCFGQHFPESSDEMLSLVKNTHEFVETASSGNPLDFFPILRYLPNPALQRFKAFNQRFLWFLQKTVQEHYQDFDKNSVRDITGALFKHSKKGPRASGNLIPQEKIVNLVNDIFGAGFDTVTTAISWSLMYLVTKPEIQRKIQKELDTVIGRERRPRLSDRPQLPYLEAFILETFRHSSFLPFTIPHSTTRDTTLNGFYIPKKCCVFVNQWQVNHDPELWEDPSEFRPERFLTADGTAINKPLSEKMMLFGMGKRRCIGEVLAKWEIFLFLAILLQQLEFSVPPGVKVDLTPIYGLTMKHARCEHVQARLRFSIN

[5] = target: T5, CYP3A4 (Homo sapiens, UniProt P08684); experiment: biochemical; details: for IC50: CYP3A4 IC50 (half-maximal inhibitory concentration)
[6] = target: T5, CYP3A4; experiment: in vitro
[7] = target: T3, human CYP2D6; experiment: biochemical
[8] = target: T2, human CYP2C19; details: for CYP2C19 Efficacy (in parenthesis): human
[9] = target: T1, human CYP2C9; details: for CYP2C9 Efficacy (in parenthesis): human
[10] = target: Photinus pyralis (firefly) luciferase (Photinus pyralis, UniProt P08659); experiment: biochemical; type: biochemical
[11] = target: T3, human CYP2D6; experiment: P450-Glo CYP2D6 inhibition qHTS
[12] = target: T4, human CYP1A2; experiment: biochemical
[13] = target: T1, human CYP2C9; experiment: P450-Glo CYP2C9 inhibition qHTS
[14] = target: T2, human CYP2C19; experiment: biochemical
[15] = target: T5, CYP3A4
[16] = in vivo; cited from earlier work
[17] = CYP1A2 IC50 (half-maximal inhibitory concentration)
[18] = CYP2C19 IC50 (half-maximal inhibitory concentration)
[19] = CYP2C9 IC50 (half-maximal inhibitory concentration)
[20] = CYP2D6 IC50 (half-maximal inhibitory concentration)

T2 sequence (P33261 whole entry): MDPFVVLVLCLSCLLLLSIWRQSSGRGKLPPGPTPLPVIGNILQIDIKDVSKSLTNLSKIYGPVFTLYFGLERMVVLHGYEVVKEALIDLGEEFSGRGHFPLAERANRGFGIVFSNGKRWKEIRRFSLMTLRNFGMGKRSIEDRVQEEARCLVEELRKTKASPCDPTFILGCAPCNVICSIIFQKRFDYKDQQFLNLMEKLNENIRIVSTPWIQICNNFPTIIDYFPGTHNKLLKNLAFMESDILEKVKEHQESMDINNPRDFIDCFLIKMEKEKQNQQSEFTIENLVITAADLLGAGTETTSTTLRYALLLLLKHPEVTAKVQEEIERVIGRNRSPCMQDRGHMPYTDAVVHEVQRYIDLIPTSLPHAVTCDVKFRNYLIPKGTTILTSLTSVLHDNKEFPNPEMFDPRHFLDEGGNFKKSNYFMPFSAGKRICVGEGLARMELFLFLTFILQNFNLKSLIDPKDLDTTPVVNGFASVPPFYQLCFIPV
T5 sequence (P08684 whole entry): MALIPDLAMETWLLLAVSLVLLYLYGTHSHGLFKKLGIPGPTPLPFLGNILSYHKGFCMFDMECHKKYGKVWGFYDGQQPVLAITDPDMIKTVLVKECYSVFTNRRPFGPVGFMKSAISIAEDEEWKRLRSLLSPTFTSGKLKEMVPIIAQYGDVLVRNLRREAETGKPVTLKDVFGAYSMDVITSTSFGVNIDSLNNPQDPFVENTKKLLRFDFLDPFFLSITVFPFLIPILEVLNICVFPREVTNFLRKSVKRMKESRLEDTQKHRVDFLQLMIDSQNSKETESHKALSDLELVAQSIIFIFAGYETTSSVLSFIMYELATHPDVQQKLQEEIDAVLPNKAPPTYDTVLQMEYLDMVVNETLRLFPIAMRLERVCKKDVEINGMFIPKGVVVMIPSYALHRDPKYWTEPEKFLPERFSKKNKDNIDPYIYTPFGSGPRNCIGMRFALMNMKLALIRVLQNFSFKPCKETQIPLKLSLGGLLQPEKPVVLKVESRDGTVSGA
T1 sequence (P11712 whole entry): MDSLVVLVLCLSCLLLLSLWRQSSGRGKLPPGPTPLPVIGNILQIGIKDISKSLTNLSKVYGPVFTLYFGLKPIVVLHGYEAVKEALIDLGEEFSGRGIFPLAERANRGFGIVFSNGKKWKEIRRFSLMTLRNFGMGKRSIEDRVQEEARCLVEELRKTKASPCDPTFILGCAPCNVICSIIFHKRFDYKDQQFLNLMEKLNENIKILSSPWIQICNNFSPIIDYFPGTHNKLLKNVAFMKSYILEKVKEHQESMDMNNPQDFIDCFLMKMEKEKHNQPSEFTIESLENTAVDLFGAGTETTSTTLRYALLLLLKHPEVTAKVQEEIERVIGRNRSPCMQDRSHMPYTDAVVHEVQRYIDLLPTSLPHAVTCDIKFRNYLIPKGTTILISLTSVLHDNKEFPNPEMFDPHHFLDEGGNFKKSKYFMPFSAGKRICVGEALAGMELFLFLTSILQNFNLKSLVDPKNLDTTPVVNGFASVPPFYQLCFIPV
Photinus pyralis (firefly) luciferase, sequence (P08659 whole entry): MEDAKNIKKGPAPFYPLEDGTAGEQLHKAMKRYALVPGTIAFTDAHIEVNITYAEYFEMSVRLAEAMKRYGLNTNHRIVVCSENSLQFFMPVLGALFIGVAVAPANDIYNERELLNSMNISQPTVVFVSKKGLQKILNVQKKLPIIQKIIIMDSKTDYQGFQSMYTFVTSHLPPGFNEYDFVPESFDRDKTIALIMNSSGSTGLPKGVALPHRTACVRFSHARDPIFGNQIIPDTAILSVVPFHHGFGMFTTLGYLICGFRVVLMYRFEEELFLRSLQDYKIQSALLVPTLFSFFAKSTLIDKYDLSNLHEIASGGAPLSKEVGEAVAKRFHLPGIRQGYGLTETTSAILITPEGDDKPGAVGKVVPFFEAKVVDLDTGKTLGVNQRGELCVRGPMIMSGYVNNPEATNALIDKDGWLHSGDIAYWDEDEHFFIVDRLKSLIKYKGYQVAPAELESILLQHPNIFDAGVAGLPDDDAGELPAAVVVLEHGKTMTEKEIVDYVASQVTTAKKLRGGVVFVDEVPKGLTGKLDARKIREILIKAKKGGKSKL
T3 sequence (P10635 whole entry): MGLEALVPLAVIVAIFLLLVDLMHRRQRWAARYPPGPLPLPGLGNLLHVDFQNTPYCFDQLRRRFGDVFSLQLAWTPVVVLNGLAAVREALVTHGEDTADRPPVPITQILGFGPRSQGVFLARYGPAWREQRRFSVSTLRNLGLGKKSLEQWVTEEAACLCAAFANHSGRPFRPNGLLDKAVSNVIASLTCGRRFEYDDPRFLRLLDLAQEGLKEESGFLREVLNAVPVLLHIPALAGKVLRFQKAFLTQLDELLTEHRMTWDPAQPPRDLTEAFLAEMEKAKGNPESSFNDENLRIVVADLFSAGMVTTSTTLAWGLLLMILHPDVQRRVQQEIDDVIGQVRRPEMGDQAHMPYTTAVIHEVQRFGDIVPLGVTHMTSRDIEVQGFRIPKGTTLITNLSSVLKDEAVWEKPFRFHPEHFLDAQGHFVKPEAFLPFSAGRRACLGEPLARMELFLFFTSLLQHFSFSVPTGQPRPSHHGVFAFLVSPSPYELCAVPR

| SMILES | Luciferase IC50 (half-maximal inhibitory concentration) [10] | IC50 [12, 17] | CYP2C19 Efficacy (in parenthesis) [8] | CYP2D6 Efficacy (in parenthesis) [3] | CYP1A2 Efficacy (in parenthesis) ([4]; human) | CYP2C9 Efficacy (in parenthesis) [9] | IC50 [14, 18] | CYP3A4 Efficacy (in parenthesis) [15] | IC50 [5] | IC50 [1, 19] | IC50 [7, 20] | further results |
| --- | --- | --- | --- | --- | --- | --- | --- | --- | --- | --- | --- | --- |
| CN(CC1(C)CCCO1)S(=O)(=O)c1ccc(Cl)c(S(N)(=O)=O)c1 (stereo not shown) [Mefruside] | – | – | – | – | – | – | – | – | – | – | – | AC50 [1]: 13.3 ± 8.76 µM; CYP2C19 AC50 (half-maximal activity concentration) [2]: Inconclusive inhibitor; CYP2D6 AC50 (half-maximal activity concentration) [3]: Inactive; CYP1A2 AC50 (half-maximal activity concentration) [4]: Inactive; AC50 [5]: 15.8 ± 3.61 µM |
| CCc1c(C(=O)NN2CCCCC2)nn(-c2ccc(Cl)cc2Cl)c1-c1ccc(Br)cc1 [Surinabant] | – | – | – | – | – | – | – | – | – | – | – | AC50 [1]: 8.32 ± 1.06 µM; CYP2C19 AC50 (half-maximal activity concentration) [2]: Inconclusive inhibitor; CYP2D6 AC50 (half-maximal activity concentration) [3]: Inactive; CYP1A2 AC50 (half-maximal activity concentration) [4]: Inactive; AC50 [5]: 4.12 ± 1.72 µM |
| C=CCN1C[C@H](C(=O)N(CCCN(C)C)C(=O)NCC)C[C@@H]2c3cccc4[nH]cc(c34)C[C@H]21 [Cabergoline] | – | – | – | – | – | – | – | – | – | – | – | IC50 [6]: 1.02 µM; IC50 ([7]; CYP2D6 IC50): 1.47 µM; CYP2C19 IC50 [8]: Inactive; CYP1A2 IC50 [4]: Inactive; CYP2C9 IC50 [9]: Inactive; Luciferase IC50 [10]: Inactive |
| CC(C)(c1ccccc1)c1ccccc1 [2,2-Diphenylpropane] | – | – | – | – | – | – | – | – | – | – | – | CYP2D6 AC50 (half-maximal activity concentration) [11]: Inconclusive inhibitor; AC50 [12]: 58.8 µM; CYP2C19 AC50 (half-maximal activity concentration) [8]: Inactive; CYP2C9 AC50 (half-maximal activity concentration) [13]: Inconclusive inhibitor; AC50 [5]: 34.4 ± 11.7 µM |
| CSC(=O)c1cccc2nnsc12 [Acibenzolar-S-methyl] | Inactive | – | – | – | – | – | – | – | – | – | – | CYP2D6 Efficacy (in parenthesis) ([11]; human): 34.28 ± 2.23 (-79 ± 6) %; IC50 [12]: 0.77 µM; IC50 [1]: 8.65 µM; IC50 [7]: 34.3 µM; CYP2C19 Efficacy (in parenthesis) ([2]; human): 13.25 ± 2.38 (-133 ± 9) %; CYP2C9 Efficacy (in parenthesis) ([13]; human): 8.65 ± 1.19 (-93 ± 9) %; CYP1A2 Efficacy (in parenthesis) ([4]; mean ± standard deviation from three experiments, negative = inhibition): 0.77 ± 0.11 (-94 ± 7) %; IC50 [14]: 13.2 µM; CYP3A4 IC50 (half-maximal inhibitory concentration) [15]: Inactive |
| CCNP(=S)(OC)O/C(C)=C/C(=O)OC(C)C (stereo not shown) [Propetamphos] | Inactive | 2.25 µM | 0.08 ± 0.01 (-138 ± 6) % | 28.38 ± 3.26 (-120 ± 4) % | 2.25 ± 0.26 (-99 ± 4) % | 0.57 ± 0.11 (-102 ± 4) % | 0.08 µM | 1.05 ± 0.36 (-88 ± 2) % | 1.05 µM | – | – | IC50 [1]: 0.57 µM; IC50 [7]: 28.4 µM |
| C=CC(=O)OCC(CO)(COC(=O)C=C)COC(=O)C=C [Pentaerythritol triacrylate] | Inactive | 71.6 µM | 22.64 ± 2.6 (-137 ± 14) % | 63.77 ± 20.97 (-79 ± 21) % | 71.58 ± 8.23 (-54 ± 11) % | 13.25 ± 1.87 (-108 ± 2) % | 22.6 µM | 0.93 ± 0.39 (-89 ± 6) % | 0.93 µM | 13.2 µM | 63.8 µM | – |
| OC(c1ccc(F)cc1)(c1cncnc1)c1ccccc1Cl (stereo not shown) [Nuarimol] | Inactive | 49.4 µM | 2.7 ± 1.21 (-141 ± 5) % | 35.73 ± 4.11 (-53 ± 5) % | 49.42 ± 19.58 (-46 ± 6) % | 23.57 ± 4.24 (-118 ± 8) % | 2.7 µM | 0.31 ± 0.08 (-68 ± 6) % | 0.31 µM | 23.6 µM | 35.7 µM | – |
| O=S(=O)(Oc1ccc(Cl)cc1)c1ccc(Cl)cc1 [Chlorfenson] | Inactive | 3.21 µM | 0.14 ± 0.02 (-95 ± 43) % | 21.56 ± 9.06 (-95 ± 15) % | 3.21 ± 1.48 (-95 ± 14) % | 18.81 ± 7.04 (-92 ± 16) % | 0.14 µM | 6.8 ± 1.64 (41 ± 6) % | 6.8 µM | 18.8 µM | 21.6 µM | – |
| COC(=O)[C@@H]1[C@H]2C[C@H]3c4[nH]c5ccccc5c4CCN3C[C@@H]2CC[C@@H]1O [Yohimbine, reference compound] | Inactive | – | – | – | – | – | – | – | – | – | – | Cmax (maximum plasma concentration) [16]: 75 ng/mL |
| CC(C)C1CCC(Cc2ccc(Cl)cc2)C1(O)Cn1cncn1 (stereo not shown) [Ipconazole] | Inactive | 35.4 µM | 0.27 ± 0.07 (-168 ± 31) % | 22.34 ± 2.57 (-107 ± 15) % | 35.41 ± 4.07 (-90 ± 1) % | 0.79 ± 0.09 (-94 ± 4) % | 0.27 µM | 0.05 ± 0.01 (-89 ± 5) % | 0.05 µM | 0.79 µM | 22.3 µM | – |
| CCOP(=S)(OCC)SCn1c(=O)oc2cc(Cl)ccc21 [Phosalone] | – | 2.98 µM | 0.13 ± 0.05 (-148 ± 13) % | 15.88 ± 2.02 (-103 ± 4) % | 2.98 ± 0.74 (-99 ± 6) % | 1.21 ± 0.14 (-101 ± 6) % | 0.13 µM | 0.3 ± 0.07 (-85 ± 5) % | 0.3 µM | – | – | IC50 [1]: 1.21 µM; IC50 [7]: 15.9 µM; IC50 [10]: 49.6 µM |
| Clc1ccc(C2(Cn3cncn3)OCCO2)c(Cl)c1 [Azaconazole] | Inactive | 33.1 µM | 2.14 ± 0.96 (-148 ± 8) % | 65.83 ± 4.46 (-77 ± 14) % | 33.14 ± 4.22 (-89 ± 9) % | 15.38 ± 2.12 (-103 ± 8) % | 2.14 µM | 0.48 ± 0.03 (-62 ± 7) % | 0.48 µM | 15.4 µM | 65.8 µM | – |
| COP(=S)(Oc1cc(Cl)c(Br)cc1Cl)c1ccccc1 (stereo not shown) [Leptophos] | Inactive | 21.4 µM | 0.27 ± 0.05 (-122 ± 2) % | 89.36 ± 0 (-42 ± 11) % | 21.38 ± 6.3 (-109 ± 13) % | 0.98 ± 0.25 (-107 ± 5) % | 0.27 µM | 7.39 ± 0.5 (-65 ± 15) % | 7.39 µM | – | – | IC50 [1]: 0.98 µM; IC50 [7]: 89.4 µM |
| COc1c2ccoc2cc2oc(=O)ccc12 [5-Methoxypsoralen] | Inactive | 0.28 µM | 10.35 ± 3.33 (-151 ± 18) % | 0.1 ± 0.02 (11 ± 2) % | 0.28 ± 0.03 (-96 ± 3) % | 2.43 ± 0.16 (-105 ± 2) % | 10.3 µM | 9.16 ± 1.5 (-71 ± 2) % | 9.16 µM | 2.43 µM | 0.1 µM | – |
| COP(=S)(OC)Oc1ccc(S(=O)(=O)N(C)C)cc1 [Famphur] | Inactive | 35.7 µM | 0.09 ± 0.01 (-137 ± 1) % | 35.57 ± 0 (-59 ± 2) % | 35.73 ± 4.11 (-67 ± 14) % | 0.4 ± 0.05 (-109 ± 5) % | 0.09 µM | 9.06 ± 1.9 (-86 ± 7) % | 9.06 µM | – | – | IC50 [1]: 0.4 µM; IC50 [7]: 35.6 µM |
| CC(C)(C)C(O)(CCc1ccc(Cl)cc1)Cn1cncn1 (stereo not shown) [Tebuconazole] | Inactive | 31.9 µM | 0.45 ± 0.0 (-115 ± 9) % | 34.28 ± 2.23 (-82 ± 7) % | 31.85 ± 3.66 (-77 ± 8) % | 3.3 ± 0.22 (-104 ± 4) % | 0.45 µM | 0.21 ± 0.04 (-90 ± 1) % | 0.21 µM | 3.3 µM | 34.3 µM | – |
